Test results from the NIST ThermoML archive (doi:10.1021/je0499768).

Tests used:
[1] = Crystal
[2] = Molar enthalpy of transition or fusion; conditions: Crystal
[3] = molar heat capacity at saturation pressure

CCCCCO [pentan-1-ol]
Conditions | Molar enthalpy of transition or fusion [kJ/mol] | Triple point temperature [K]
[1] | – | 195.6
[2] | 10.51 | –

[3]
Conditions | molar heat capacity [J/K/mol]
84.35 K, Crystal | 65.89
85.06 K, Crystal | 66.25
86.86 K, Crystal | 67.27
89.74 K, Crystal | 68.87
92.58 K, Crystal | 70.39
94.72 K, Crystal | 71.43
95.39 K, Crystal | 71.74
95.42 K, Crystal | 71.88
97.19 K, Crystal | 72.64
98.27 K, Crystal | 73.33
100.1 K, Crystal | 74.14
101.12 K, Crystal | 74.67
102.99 K, Crystal | 75.73
103.99 K, Crystal | 76.36
105.87 K, Crystal | 77.16
106.86 K, Crystal | 77.84
108.76 K, Crystal | 78.64
109.74 K, Crystal | 79.23
111.65 K, Crystal | 79.96
112.62 K, Crystal | 80.53
114.54 K, Crystal | 81.27
115.51 K, Crystal | 81.81
117.45 K, Crystal | 82.55
118.41 K, Crystal | 83.11
120.35 K, Crystal | 83.59
121.31 K, Crystal | 84.26
123.26 K, Crystal | 85.21
124.22 K, Crystal | 85.78
126.17 K, Crystal | 86.52
127.13 K, Crystal | 87.05
129.09 K, Crystal | 87.81
130.04 K, Crystal | 88.35
132 K, Crystal | 89.11
132.96 K, Crystal | 89.63
134.92 K, Crystal | 90.35
135.88 K, Crystal | 90.9
137.85 K, Crystal | 91.65
138.8 K, Crystal | 92.19
140.77 K, Crystal | 92.89
141.73 K, Crystal | 93.48
143.7 K, Crystal | 94.19
144.65 K, Crystal | 94.77
146.63 K, Crystal | 95.55
147.58 K, Crystal | 96.12
149.56 K, Crystal | 96.87
150.51 K, Crystal | 97.45
152.49 K, Crystal | 98.21
153.44 K, Crystal | 98.8
155.42 K, Crystal | 99.58
156.38 K, Crystal | 100.2
158.36 K, Crystal | 101.02
159.31 K, Crystal | 101.61
161.29 K, Crystal | 102.48
162.24 K, Crystal | 103.05
164.23 K, Crystal | 103.98
165.18 K, Crystal | 104.56
167.16 K, Crystal | 105.55
168.11 K, Crystal | 106.11
170.08 K, Crystal | 107.17
171.04 K, Crystal | 107.72
173.01 K, Crystal | 108.87
173.97 K, Crystal | 109.43
175.94 K, Crystal | 110.7
176.89 K, Crystal | 111.3
178.85 K, Crystal | 112.7
179.8 K, Crystal | 113.33
181.73 K, Crystal | 115.01
182.67 K, Crystal | 115.64
184.57 K, Crystal | 118.07
185.5 K, Crystal | 118.77
187.36 K, Crystal | 123.84
188.28 K, Crystal | 124.56
198.65 K, Liquid | 163.65
199.38 K, Liquid | 163.9
200.99 K, Liquid | 163.99
201.72 K, Liquid | 164.4
203.32 K, Liquid | 164.43
204.05 K, Liquid | 164.85
205.65 K, Liquid | 164.91
206.37 K, Liquid | 165.31
207.96 K, Liquid | 165.4
208.68 K, Liquid | 165.79
210.27 K, Liquid | 165.93
210.99 K, Liquid | 166.35
212.58 K, Liquid | 166.46
213.29 K, Liquid | 166.86
214.87 K, Liquid | 167.08
215.58 K, Liquid | 167.46
217.16 K, Liquid | 167.65
217.86 K, Liquid | 168.06
219.44 K, Liquid | 168.24
220.14 K, Liquid | 168.68
221.71 K, Liquid | 168.88
222.41 K, Liquid | 169.28
223.98 K, Liquid | 169.49
224.67 K, Liquid | 169.98
226.24 K, Liquid | 170.19
226.92 K, Liquid | 170.74
228.49 K, Liquid | 170.97
229.17 K, Liquid | 171.45
230.73 K, Liquid | 171.69
231.4 K, Liquid | 172.08
232.96 K, Liquid | 172.37
233.63 K, Liquid | 172.91
235.19 K, Liquid | 173.18
235.85 K, Liquid | 173.67
237.41 K, Liquid | 174
238.06 K, Liquid | 174.45
239.61 K, Liquid | 174.8
240.27 K, Liquid | 175.24
241.81 K, Liquid | 175.57
242.46 K, Liquid | 176.08
244 K, Liquid | 176.53
244.65 K, Liquid | 177.02
246.19 K, Liquid | 177.41
246.83 K, Liquid | 177.9
248.36 K, Liquid | 178.37
249 K, Liquid | 178.81
250.53 K, Liquid | 179.33
251.16 K, Liquid | 179.81
252.69 K, Liquid | 180.35
253.31 K, Liquid | 180.73
254.84 K, Liquid | 180.78
255.46 K, Liquid | 181.29
256.98 K, Liquid | 181.89
257.6 K, Liquid | 182.33
259.12 K, Liquid | 182.97
259.72 K, Liquid | 183.42
261.25 K, Liquid | 184.11
261.84 K, Liquid | 184.56
263.36 K, Liquid | 185.17
263.95 K, Liquid | 185.84
265.47 K, Liquid | 186.38
266.05 K, Liquid | 186.93
267.57 K, Liquid | 187.55
268.14 K, Liquid | 188.12
269.66 K, Liquid | 188.85
270.23 K, Liquid | 189.24
271.74 K, Liquid | 190.03
272.3 K, Liquid | 190.52
273.81 K, Liquid | 190.93
274.36 K, Liquid | 191.79
275.87 K, Liquid | 192.5
276.41 K, Liquid | 193.06
277.92 K, Liquid | 193.85
278.46 K, Liquid | 194.4
279.97 K, Liquid | 195.18
280.49 K, Liquid | 195.74
282 K, Liquid | 196.61
282.51 K, Liquid | 197.04
284.02 K, Liquid | 197.96
284.53 K, Liquid | 198.45
286.03 K, Liquid | 199.37
286.53 K, Liquid | 199.91
288.04 K, Liquid | 200.78
288.52 K, Liquid | 201.35
290.03 K, Liquid | 202.3
290.5 K, Liquid | 202.81
292.01 K, Liquid | 203.82
292.48 K, Liquid | 204.11
293.99 K, Liquid | 205.24
294.44 K, Liquid | 205.79
295.95 K, Liquid | 206.87
296.39 K, Liquid | 207.42
297.91 K, Liquid | 208.52
298.34 K, Liquid | 208.88
299.85 K, Liquid | 210.01
300.27 K, Liquid | 210.28
300.3 K, Liquid | 209.4
300.6 K, Liquid | 209.89
300.81 K, Liquid | 210.54
301.09 K, Liquid | 210.46
301.72 K, Liquid | 211.03
302.2 K, Liquid | 211.81
303.67 K, Liquid | 212.74
304.12 K, Liquid | 213.39
305.6 K, Liquid | 214.44
306.03 K, Liquid | 215.06
307.52 K, Liquid | 216.02
307.94 K, Liquid | 216.66
309.43 K, Liquid | 217.84
309.83 K, Liquid | 218.39
311.32 K, Liquid | 219.47
311.72 K, Liquid | 219.98
313.21 K, Liquid | 221.03
313.59 K, Liquid | 221.54
315.09 K, Liquid | 222.83
315.46 K, Liquid | 223.3
316.96 K, Liquid | 224.55
317.31 K, Liquid | 224.93
318.82 K, Liquid | 226.26
319.16 K, Liquid | 226.53
320.67 K, Liquid | 228
320.99 K, Liquid | 228.31
322.52 K, Liquid | 229.67
322.82 K, Liquid | 229.96
324.36 K, Liquid | 231.42
324.65 K, Liquid | 231.73
326.19 K, Liquid | 233.09
326.46 K, Liquid | 233.41
328.01 K, Liquid | 234.81
328.27 K, Liquid | 235
329.82 K, Liquid | 236.6
330.07 K, Liquid | 236.82
331.62 K, Liquid | 238.27
331.85 K, Liquid | 238.73
333.42 K, Liquid | 239.94
333.63 K, Liquid | 240.3
335.2 K, Liquid | 241.58
335.4 K, Liquid | 241.97
336.98 K, Liquid | 243.24
337.16 K, Liquid | 243.65
338.75 K, Liquid | 244.92
338.92 K, Liquid | 245.3
340.51 K, Liquid | 246.6
340.66 K, Liquid | 246.9
342.27 K, Liquid | 248.02
342.4 K, Liquid | 248.57
344.02 K, Liquid | 249.71
344.13 K, Liquid | 250.3
345.76 K, Liquid | 251.26
345.85 K, Liquid | 252.05
347.5 K, Liquid | 252.83
347.57 K, Liquid | 253.58
349.23 K, Liquid | 254.25
349.27 K, Liquid | 255.13
350.95 K, Liquid | 255.52
350.97 K, Liquid | 256.62
352.66 K, Liquid | 258.17
352.67 K, Liquid | 256.89
354.35 K, Liquid | 259.96
354.38 K, Liquid | 259.82
356.02 K, Liquid | 261.44
356.07 K, Liquid | 261.38
357.7 K, Liquid | 262.72
357.76 K, Liquid | 262.85
359.36 K, Liquid | 264.29
359.43 K, Liquid | 264.36
361.02 K, Liquid | 265.62
361.1 K, Liquid | 265.85
362.67 K, Liquid | 266.89
362.77 K, Liquid | 267.17
364.32 K, Liquid | 268.43
364.43 K, Liquid | 268.78
365.96 K, Liquid | 269.86
366.08 K, Liquid | 270.13
367.59 K, Liquid | 270.92
367.73 K, Liquid | 271.33
369.23 K, Liquid | 271.93
369.37 K, Liquid | 272.76
370.86 K, Liquid | 272.95
371.01 K, Liquid | 274.05
372.64 K, Liquid | 275.14
374.27 K, Liquid | 276.38
375.89 K, Liquid | 277.43
377.52 K, Liquid | 278.66
379.14 K, Liquid | 279.32
380.76 K, Liquid | 280.36

CCCO [propan-1-ol]
Conditions | Molar enthalpy of transition or fusion [kJ/mol] | Triple point temperature [K]
[1] | – | 148.71
[2] | 5.4 | –

[3], Glass
Conditions | molar heat capacity [J/K/mol]
84.71 K | 55.24
86.52 K | 56.57
89.38 K | 58.64
92.19 K | 61.1
94.96 K | 66.41
